Source: BindingDB's records for patent US20250325711 (Hoffmann-La Roche, 2025)

These compounds were tested against Cannabinoid receptor 2 (Homo sapiens, UniProt P34972) (assay: Competition Binding Assay).
Procedure: To determine the affinity of CB2R-specific ligands, we used a simple competition kinetic binding assay. This approach involves the simultaneous addition of both fluorescent ligand and competitor to the CB2R preparation. 62.5 nM 8-SiR, concentration which avoid ligand depletion in this assay volume, were added simultaneously with increasing concentrations of the unlabeled compound to CB2R cell membranes (4 μg per well) in 40 μL of assay buffer in a 384-well plate incubated at room temperature with orbital mixing. The degree of fluorescent ligand bound to the receptor was assessed at equilibrium by HTRF detection. Nonspecific binding was determined as the amount of HTRF signal detected in the presence of SR144528 (1 μM) and was subtracted from total binding, to calculate specific binding for construction of IC50 curves.

Sequence of Cannabinoid receptor 2 (P34972 whole entry): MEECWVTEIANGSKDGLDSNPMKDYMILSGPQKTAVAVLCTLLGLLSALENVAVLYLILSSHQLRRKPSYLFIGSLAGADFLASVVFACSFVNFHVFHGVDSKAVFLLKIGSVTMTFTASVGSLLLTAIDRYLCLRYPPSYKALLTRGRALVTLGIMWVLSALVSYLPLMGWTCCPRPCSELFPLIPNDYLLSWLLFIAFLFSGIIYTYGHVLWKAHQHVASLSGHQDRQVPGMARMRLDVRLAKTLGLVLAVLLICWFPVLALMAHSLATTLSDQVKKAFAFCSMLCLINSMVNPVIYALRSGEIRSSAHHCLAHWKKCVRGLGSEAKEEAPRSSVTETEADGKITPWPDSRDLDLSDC

| Structure (SMILES) | Kd |
| --- | --- |
| COc1cc(C(C)(C)CCCCCCN=[N+]=[N-])cc(OC)c1[C@H]1C=C(CNC(=O)CCCCCCCCNC(=O)c2ccc(=O)n(S(=O)(=O)c3cccc(C(=O)NCC4CN(CCOCCNc5ccc([N+](=O)[O-])c6nonc56)N=N4)c3)c2)[C@H]2C[C@@H]1C2(C)C (some centres not stated) [US20250325711, Example 7] | 8.9 nM |
| COc1cc(C(C)(C)CCCCCCN=[N+]=[N-])cc(OC)c1[C@H]1C=C(CNC(=O)CCCCCCNC(=O)c2ccc(=O)n(S(=O)(=O)c3cccc(C(=O)NCC4CN(CCOCCOCCOCCOCCNc5ccc([N+](=O)[O-])c6nonc56)N=N4)c3)c2)[C@H]2C[C@@H]1C2(C)C (some centres not stated) [US20250325711, Example 4] | 4.5 nM |
| CCN(CC)c1ccc2c(c1)OC(=O)C(/C=C/c1ccc(S(=O)(=O)[O-])c[n+]1CCCCCC(=O)NCCOCCN1CC(CNC(=O)C3=CC(S(=O)(=O)N4CC(C(=O)NCCCCCCC(=O)NCC5=C[C@H](c6c(OC)cc(C(C)(C)CCCCCCN=[N+]=[N-])cc6OC)[C@@H]6C[C@H]5C6(C)C)C=CC4=O)CC=C3)N=N1)C2 (some centres not stated) [US20250325711, Example 5] | 59 nM |
| COc1cc(C(C)(C)CCCCCCN=[N+]=[N-])cc(OC)c1[C@H]1C=C(CNC(=O)CCCCCCNC(=O)c2ccc(S(=O)(=O)N(CC#N)C(=O)CCC3CN(CCOCCNc4ccc([N+](=O)[O-])c5nonc45)N=N3)cc2)[C@H]2C[C@@H]1C2(C)C (some centres not stated) [US20250325711, Example 11] | 152 nM |
| COc1cc(C(C)(C)CCCCCCN=[N+]=[N-])cc(OC)c1[C@H]1C=C(CNC(=O)CCCCCCNC(=O)c2ccc(=O)n(S(=O)(=O)c3cccc(C(=O)NCC4CN(CCOCCNc5ccc([N+](=O)[O-])c6nonc56)N=N4)c3)c2)[C@H]2C[C@@H]1C2(C)C (some centres not stated) [US20250325711, Example 2] | 22.9 nM |
| COc1cc(C(C)(C)CCCCCCN=[N+]=[N-])cc(OC)c1[C@H]1C=C(CNC(=O)CCCCNC(=O)c2ccc(=O)n(S(=O)(=O)c3cccc(C(=O)NCCC4CN(CCOCCNc5ccc([N+](=O)[O-])c6nonc56)N=N4)c3)c2)[C@H]2C[C@@H]1C2(C)C (some centres not stated) [US20250325711, Example 1] | 9.1 nM |
| CCCCCCC(C)(C)c1cc(OC)c([C@H]2C=C(CNC(=O)CCCCCCNC(=O)c3ccc(=O)n(S(=O)(=O)c4cccc(C(=O)NCC5CN(CCOCCNc6ccc([N+](=O)[O-])c7nonc67)N=N5)c4)c3)[C@H]3C[C@@H]2C3(C)C)c(OC)c1 (some centres not stated) [US20250325711, Example 3] | 24.2 nM |
